# Test results published in patent US20190330224A1, “ACC INHIBITORS AND USES THEREOF” (Gilead Apollo, LLC, priority 2015, published 2019).
# pIC50: −log10 of the molar value.
# Columns and labels:
# [1] = test system: Collectotrichum graminicola (Cg); assay: Growth inhibition assay of fungal pathogens, Cg; format: cell-based; settings: 48 hours; read-out: Concentration at 90% Inhibition, Cg
# Experimental: (§1) Compounds of the present invention were evaluated in a growth inhibition assay to determine the ability to control the growth of fungal pathogens, such as Botrtyis cinerea (Bc). Collectotrichum graminicola (Cg), Diplodia maydis (Dm), Fusarium moniliforme (Fm), Fusarium virguliforme (Fv), Phytophthora capsici (Pc), Rhizoctonia solani (Rs), and Septoria tritici (St). Compounds to be tested were dissolved in DMSO at 2.5 mg/ml to produce compound stock solutions (“stocks”). Stocks were diluted with DMSO by a five-fold dilution in a 96-well stock plate, and two sets of final concentrations of 50, 10, and 2 ppm or 2, 0.4, and 0.08 ppm were obtained in vitro. A set of positive controls was also prepared, with various concentrations of Soraphen (2, 0.4, and 0.08 ppm), Metalaxyl (1.1, 0.22, and 0.04 ppm), and Metconazole (2, 0.4, and 0.08 ppm or 0.2, 0.04, and 0.008 ppm) after the five-fold dilutions. Negative controls on each plate included 2% DMSO, water, and a blank (media+2% DMSO). Fungal spores were isolated from previously sub-cultured plates of Botrtyis cinerea (Bc), Collectotrichum graminicola (Cg), Diplodia maydis (Dm), Fusarium moniliforme (Fm), Fusarium virguliforme (Fv), Phytophthora capsici (Pc), and Septoria tritici (St). The isolated spores were diluted to individual concentrations with a 17% V8 liquid media. For Rhizoctonia solani (Rs) and Pythium irregulare, 1.5 mm mycelial plugs were used in place of spores and ¼ Potato Dextrose Broth (PDB) was used for dilution. The spore concentrations and plug sizes were based on growth curves generated at 48 hours for each pathogen. In a second 96-well plate, the spores or mycelial plugs, media, diluted compound solutions, and controls were combined. Once the compound was added, a true final concentration of compound in each well was measured by an OD600 reading, which adjusted for any compound precipitation that might have occurred in the well. Plate readings were repeated at both 24 and 48 hours. The blank negative control was used as a background subtraction. Additional visual ratings were performed at both 24 and 48 hours for checking on precipitation and confirming efficacy. Visual and OD600 ratings of the compounds at 48 hours were compared to the 2% DMSO negative control, and the percent of pathogen growth inhibition was determined based on those values.
# [2] = test system: Diplodia maydis (Dm); assay: Growth inhibition assay of fungal pathogens, Dm; format: cell-based; settings: Stenocarpella maydis; 48 hours; read-out: Concentration at 90% Inhibition, Dm
# Experimental: as §1
# [3] = test system: C. albicans ATCC 90028; assay: Anti-Fungal Activity Assay (broth microtiter MIC), C. albicans; format: cell-based, Candida albicans; settings: Candida albicans, ATCC90028, 48 h, 3 replicates; MIC recorded at 48 h; read-out: MIC C. albicans ATCC 90028
# Outline: (§2)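 Plate from frozen stock onto Sabouraud dextrose agar, 35° C overnight; swab colonies into RPMI 1640+MOPS; set density via standard curves; run CLSI M27-A3 broth microdilution; score MIC visually versus growth control at 48 h, soraphen additionally at 24 h.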
# [4] = test system: Septoria tritici (St); assay: Growth inhibition assay of fungal pathogens, St; format: cell-based; settings: Zymoseptoria tritici; 48 hours; read-out: Concentration at 90% Inhibition, St
# Experimental: as §1
# [5] = test system: Fusarium moniliforme (Fm); assay: Growth inhibition assay of fungal pathogens, Fm; format: cell-based; settings: Fusarium verticillioides; 48 hours; read-out: Concentration at 90% Inhibition, Fm
# Experimental: as §1
# [6] = target: Human ACC2 (Homo sapiens, UniProt O00763); assay: In vitro ACC2 inhibition assay (ADP-Glo), human ACC2; format: biochemical; settings: 5 nM ACC2, 20 μM ATP, 20 μM acetyl-CoA
# [7] = test system: Phytophthora capsici (Pc); assay: Growth inhibition assay of fungal pathogens, Pc; format: cell-based; settings: 48 hours, read-out: Concentration at 90% Inhibition, Pc
# Experimental: as §1
# [8] = test system: C. parapsilosis ATCC 22019; assay: Anti-Fungal Activity Assay (broth microtiter MIC), C. parapsilosis; format: cell-based, Candida parapsilosis; settings: Lodderomyces parapsilosis, ATCC22019, 48 h, 3 replicates; MIC recorded at 48 h; read-out: MIC C. parapsilosis ATCC 22019
# Outline: as §2
# [9] = test system: Blumeria graminis f sp. hordei; assay: Foliar protection test, barley powdery mildew control; format: in vivo, Blumeria graminis f sp. hordei on Hordeum vulgare cv. Perry; settings: 168 h, compound concentration 50 ppm, foliar spray, evaluated 7 days after inoculation, read-out: Barley Powdery Mildew Control at 50 ppm
# Experimental: Compounds of the present invention were evaluated in a foliar protection test to determine the ability to control barley powdery mildew. Plants (Hordeum vulgare cv. Perry) were grown for 6 days in 2-inch square pots containing Metromix 200 medium amended with fertilizer. For propagation, plants were maintained in a growth chamber at conditions of 20 to 21° C., 16 hour light cycle, 400 uM of light, 70% humidity, and with sub-irrigation as needed. After inoculation with the pathogen of Blumeria graminis f sp. hordei, plants were kept at conditions of 20 to 22° C., 70% relative humidity, and 200 uM of light to facilitate infection and disease development. At 6 days after planting (1st true leaf fully expanded), the test compounds were dissolved in a solution of 5% acetone and 0.005% Tween 80 surfactant. An atomizer was used for applying the solution onto both sides of the leaves until thoroughly wetted. The amount of the compound applied to the leaves was typically 200, 100, 50, 10, or 2 ppm, but it may vary. At 24 hours after treatment, the plants were moved to a cooler chamber and inoculated by shaking well-colonized, untreated stock plants above the treated plants. This allowed producing a settling cloud of spores and resulting in uniform infection. Efficacy was evaluated in 7 days later by examining leaves for colonization and growth of mildew. Table 5 lists the results of barley powdery mildew control at a compound concentration of 50 ppm or 10 ppm. Compounds having an activity designated as “AA” provided a compound having >85% control of barley powdery mildew; compounds having an activity designated as “A” provided a compound having from 70% to 84% control of barley powdery mildew; compounds having an activity designated as “B” provided a compound having from 50 to 69% control of barley powdery mildew; compounds having an activity designated as “C” provided a compound having from 25 to 49% control of barley powdery mildew; and compounds having an activity designated as “D” provided a compound having <25% control of barley powdery mildew.
# [10] = test system: Botrtyis cinerea (Bc); assay: Growth inhibition assay of fungal pathogens, Bc; format: cell-based; settings: 48 hours; read-out: Concentration at 90% Inhibition, Bc
# Experimental: as §1
# [11] = test system: Fusarium virguliforme (Fv); assay: Growth inhibition assay of fungal pathogens, Fv; format: cell-based; settings: 48 hours, read-out: Concentration at 90% Inhibition, Fv
# Experimental: as §1
# [12] = test system: Rhizoctonia solani (Rs); assay: Growth inhibition assay of fungal pathogens, Rs; format: cell-based; settings: 48 hours, read-out: Concentration at 90% Inhibition, Rs
# Experimental: as §1
# [13] = target: Fungal ACC2 (UniProt Q00955); settings: read-out: Fungal ACC2 (IC50, in vitro ACC2 inhibition)
# [14] = test system: C. krusei ATCC 6258; assay: Anti-Fungal Activity Assay (broth microtiter MIC), C. krusei; format: cell-based, Candida krusei; settings: Pichia kudriavzevii, ATCC6258, 48 h, 3 replicates; MIC recorded at 48 h; read-out: MIC C. krusei ATCC 6258
# Outline: as §2
# [15] = compound concentration 10 ppm, foliar spray, evaluated 7 days after inoculation
# Fungal ACC2, sequence (Q00955 whole entry): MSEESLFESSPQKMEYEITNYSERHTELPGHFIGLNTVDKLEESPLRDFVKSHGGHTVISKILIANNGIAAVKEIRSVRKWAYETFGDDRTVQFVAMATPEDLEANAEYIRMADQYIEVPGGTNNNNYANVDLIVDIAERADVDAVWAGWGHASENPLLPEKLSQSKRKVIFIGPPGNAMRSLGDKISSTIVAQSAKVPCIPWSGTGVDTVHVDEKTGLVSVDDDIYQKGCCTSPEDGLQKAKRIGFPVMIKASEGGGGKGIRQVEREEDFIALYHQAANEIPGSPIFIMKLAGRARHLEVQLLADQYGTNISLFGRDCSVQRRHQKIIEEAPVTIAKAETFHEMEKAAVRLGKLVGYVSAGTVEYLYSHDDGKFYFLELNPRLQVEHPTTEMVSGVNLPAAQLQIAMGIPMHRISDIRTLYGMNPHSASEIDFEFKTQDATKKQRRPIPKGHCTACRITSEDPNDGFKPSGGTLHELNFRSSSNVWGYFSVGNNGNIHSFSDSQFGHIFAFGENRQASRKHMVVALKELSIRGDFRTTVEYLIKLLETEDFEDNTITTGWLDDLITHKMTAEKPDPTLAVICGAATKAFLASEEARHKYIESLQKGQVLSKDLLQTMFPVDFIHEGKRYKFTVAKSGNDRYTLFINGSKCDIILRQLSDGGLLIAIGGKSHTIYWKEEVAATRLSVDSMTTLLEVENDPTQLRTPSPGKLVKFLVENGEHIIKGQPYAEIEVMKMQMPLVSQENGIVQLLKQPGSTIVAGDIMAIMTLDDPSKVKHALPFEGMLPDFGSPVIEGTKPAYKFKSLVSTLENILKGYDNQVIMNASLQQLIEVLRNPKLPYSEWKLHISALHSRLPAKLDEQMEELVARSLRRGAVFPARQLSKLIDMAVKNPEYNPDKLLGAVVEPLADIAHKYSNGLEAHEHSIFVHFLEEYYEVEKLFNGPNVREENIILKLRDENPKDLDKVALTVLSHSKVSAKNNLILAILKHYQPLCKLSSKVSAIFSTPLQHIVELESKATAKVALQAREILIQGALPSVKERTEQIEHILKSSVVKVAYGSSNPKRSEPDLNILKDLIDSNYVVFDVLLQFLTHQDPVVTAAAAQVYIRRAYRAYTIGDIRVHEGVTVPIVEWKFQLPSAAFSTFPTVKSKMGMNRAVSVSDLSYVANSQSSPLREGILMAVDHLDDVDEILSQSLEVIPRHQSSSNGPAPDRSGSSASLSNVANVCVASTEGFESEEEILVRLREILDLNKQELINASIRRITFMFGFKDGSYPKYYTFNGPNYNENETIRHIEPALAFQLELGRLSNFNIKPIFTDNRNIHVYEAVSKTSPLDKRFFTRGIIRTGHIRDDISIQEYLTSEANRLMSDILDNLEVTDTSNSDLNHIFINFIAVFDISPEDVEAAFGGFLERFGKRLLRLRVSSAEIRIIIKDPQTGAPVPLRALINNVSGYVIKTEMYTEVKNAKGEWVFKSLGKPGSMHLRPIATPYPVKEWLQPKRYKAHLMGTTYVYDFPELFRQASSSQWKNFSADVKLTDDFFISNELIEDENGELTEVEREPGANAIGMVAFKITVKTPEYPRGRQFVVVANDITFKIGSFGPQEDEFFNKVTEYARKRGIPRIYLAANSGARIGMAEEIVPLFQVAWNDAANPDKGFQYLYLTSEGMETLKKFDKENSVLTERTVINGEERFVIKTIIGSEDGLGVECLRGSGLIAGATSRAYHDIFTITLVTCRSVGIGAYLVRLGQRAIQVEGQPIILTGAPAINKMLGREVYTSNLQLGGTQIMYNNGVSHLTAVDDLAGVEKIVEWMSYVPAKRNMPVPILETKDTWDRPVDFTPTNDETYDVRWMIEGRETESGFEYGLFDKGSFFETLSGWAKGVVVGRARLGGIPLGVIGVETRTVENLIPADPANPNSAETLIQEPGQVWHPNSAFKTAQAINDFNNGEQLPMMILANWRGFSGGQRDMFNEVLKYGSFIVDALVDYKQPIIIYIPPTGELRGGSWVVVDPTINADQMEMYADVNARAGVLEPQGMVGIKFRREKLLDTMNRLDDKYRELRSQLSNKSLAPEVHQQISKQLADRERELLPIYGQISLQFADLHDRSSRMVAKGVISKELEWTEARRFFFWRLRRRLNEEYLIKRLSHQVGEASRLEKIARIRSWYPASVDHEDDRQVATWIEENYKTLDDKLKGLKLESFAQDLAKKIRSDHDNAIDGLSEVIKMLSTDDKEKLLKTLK
# Human ACC2, sequence (O00763 whole entry): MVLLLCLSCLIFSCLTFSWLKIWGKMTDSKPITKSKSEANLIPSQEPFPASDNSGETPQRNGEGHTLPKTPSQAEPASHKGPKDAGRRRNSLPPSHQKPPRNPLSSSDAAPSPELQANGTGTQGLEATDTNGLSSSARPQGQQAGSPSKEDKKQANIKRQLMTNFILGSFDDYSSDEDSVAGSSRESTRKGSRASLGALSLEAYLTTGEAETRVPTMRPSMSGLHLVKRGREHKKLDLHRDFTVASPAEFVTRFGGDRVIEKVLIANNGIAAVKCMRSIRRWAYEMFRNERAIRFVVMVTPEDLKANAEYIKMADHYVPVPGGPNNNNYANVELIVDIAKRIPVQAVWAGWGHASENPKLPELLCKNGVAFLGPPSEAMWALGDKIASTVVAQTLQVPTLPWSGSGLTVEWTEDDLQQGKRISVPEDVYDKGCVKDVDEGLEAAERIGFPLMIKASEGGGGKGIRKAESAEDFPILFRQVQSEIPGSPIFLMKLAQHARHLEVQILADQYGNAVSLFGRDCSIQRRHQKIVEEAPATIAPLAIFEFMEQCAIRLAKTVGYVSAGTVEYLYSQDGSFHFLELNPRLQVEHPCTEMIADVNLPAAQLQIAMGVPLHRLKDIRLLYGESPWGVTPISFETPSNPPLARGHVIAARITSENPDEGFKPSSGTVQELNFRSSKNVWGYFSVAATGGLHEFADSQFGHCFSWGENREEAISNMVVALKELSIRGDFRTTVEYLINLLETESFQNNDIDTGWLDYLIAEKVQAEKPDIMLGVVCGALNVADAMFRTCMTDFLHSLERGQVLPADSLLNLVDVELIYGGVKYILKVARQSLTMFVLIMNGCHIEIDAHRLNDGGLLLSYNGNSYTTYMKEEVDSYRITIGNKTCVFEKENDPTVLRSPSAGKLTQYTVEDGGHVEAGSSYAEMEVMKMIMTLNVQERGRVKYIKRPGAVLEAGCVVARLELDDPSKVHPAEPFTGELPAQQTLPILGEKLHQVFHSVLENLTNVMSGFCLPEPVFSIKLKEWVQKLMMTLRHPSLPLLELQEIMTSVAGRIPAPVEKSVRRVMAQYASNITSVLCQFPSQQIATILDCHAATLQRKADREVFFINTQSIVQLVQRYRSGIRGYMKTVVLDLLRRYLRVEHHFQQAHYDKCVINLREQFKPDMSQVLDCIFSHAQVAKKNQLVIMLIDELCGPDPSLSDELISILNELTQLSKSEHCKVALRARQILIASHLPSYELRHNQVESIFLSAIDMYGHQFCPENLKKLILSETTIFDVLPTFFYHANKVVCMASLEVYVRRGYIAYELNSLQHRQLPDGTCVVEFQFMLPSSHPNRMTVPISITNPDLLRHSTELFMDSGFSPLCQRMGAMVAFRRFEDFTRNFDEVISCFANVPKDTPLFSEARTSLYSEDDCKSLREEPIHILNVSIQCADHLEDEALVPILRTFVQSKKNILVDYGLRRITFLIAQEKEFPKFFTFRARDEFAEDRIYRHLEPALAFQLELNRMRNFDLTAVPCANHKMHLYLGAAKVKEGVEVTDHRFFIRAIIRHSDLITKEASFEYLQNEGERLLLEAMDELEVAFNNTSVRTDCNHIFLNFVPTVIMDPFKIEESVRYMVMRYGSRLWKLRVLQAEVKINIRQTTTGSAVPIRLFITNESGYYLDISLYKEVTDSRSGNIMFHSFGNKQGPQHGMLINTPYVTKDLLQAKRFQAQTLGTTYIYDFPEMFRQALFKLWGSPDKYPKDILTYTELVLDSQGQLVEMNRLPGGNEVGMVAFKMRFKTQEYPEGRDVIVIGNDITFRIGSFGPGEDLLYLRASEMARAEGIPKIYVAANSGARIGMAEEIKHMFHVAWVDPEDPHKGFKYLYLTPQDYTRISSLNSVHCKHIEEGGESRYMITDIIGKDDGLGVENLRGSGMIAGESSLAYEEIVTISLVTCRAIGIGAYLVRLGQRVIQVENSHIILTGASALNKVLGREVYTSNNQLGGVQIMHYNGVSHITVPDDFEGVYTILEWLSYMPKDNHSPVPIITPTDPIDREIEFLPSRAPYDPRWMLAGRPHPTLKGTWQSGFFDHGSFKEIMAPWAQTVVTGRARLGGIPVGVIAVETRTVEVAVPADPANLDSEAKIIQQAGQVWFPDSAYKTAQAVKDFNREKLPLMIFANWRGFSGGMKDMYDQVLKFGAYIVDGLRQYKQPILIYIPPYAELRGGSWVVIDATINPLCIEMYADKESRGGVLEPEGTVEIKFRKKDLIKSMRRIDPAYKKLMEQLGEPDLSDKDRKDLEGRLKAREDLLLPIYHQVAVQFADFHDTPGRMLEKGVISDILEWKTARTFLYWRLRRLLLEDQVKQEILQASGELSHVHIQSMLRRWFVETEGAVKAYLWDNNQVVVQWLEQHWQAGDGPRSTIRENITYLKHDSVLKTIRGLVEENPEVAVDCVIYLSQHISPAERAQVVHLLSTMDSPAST
SMILES,IC90 [1],IC90 [2],MIC [3],IC90 [4],IC90 [5],pIC50 [6],IC90 [7],MIC [8],pest or weed control at 50 ppm [9],IC90 [10],IC90 [11],IC90 [12],pIC50 [13],MIC [14],Barley Powdery Mildew Control at 10 ppm [15]
"COCCO[C@@H](Cn1c(=O)n([C@H]2CCCN(C(C)C)C2=O)c(=O)c2c(C)c(-n3nccn3)sc21)c1cc(F)ccc1OC [Compound I-78, 1-((R)-2-(5-fluoro-2-methoxyphenyl)-2-(2-methoxy-ethoxy)ethyl)-3-((S)-1-isopropyl-2-oxopiperidin-3-yl)-5-methyl-6-(2H-1,2,3-triazol-2-yl)thieno[2,3-d]pyrimidine-2,4(1H,3H)-dione]",> 50 µg/mL,10 µg/mL,2.1 to 4 µg/mL,> 50 µg/mL,2 µg/mL,7.00 to 8.00,> 50 µg/mL,2.1 to 4 µg/mL,25 to 49%,2 µg/mL,> 50 µg/mL,> 50 µg/mL,8.00 to 8.70,2.1 to 4 µg/mL,–
"COc1ccc(F)cc1[C@@H](O)Cn1c(=O)n([C@@H]2CCN(C)C2=O)c(=O)c2c(C)c(-n3nccn3)sc21 [Compound I-166, 1-((R)-2-(5-fluoro-2-methoxyphenyl)-2-hydroxyethyl)-5-methyl-3-((R)-1-methyl-2-oxopyrrolidin-3-yl)-6-(2H-1,2,3-triazol-2-yl)thieno[2,3-d]pyrimidine-2,4(1H,3H)-dione]",10 µg/mL,10 µg/mL,–,> 50 µg/mL,2 µg/mL,8.00 to 8.70,> 50 µg/mL,–,–,2 µg/mL,10 µg/mL,2 µg/mL,8.70 to 9.15,–,B (provided a compound having from 50 to 69% control of barley powdery mildew)
"COc1ccc(F)cc1[C@H](Cn1c(=O)n([C@@H]2CCN(C)C2=O)c(=O)c2c(C)c(-n3nccn3)sc21)OCCC#N [Compound I-109, 3-((R)-1-(5-fluoro-2-methoxyphenyl)-2-(5-methyl-3-((R)-1-methyl-2-oxopyrrolidin-3-yl)-2,4-dioxo-6-(2H-1,2,3-triazol-2-yl)-3,4-dihydro-thieno[2,3-d]pyrimidin-1(2H)-yl)ethoxy)propanenitrile]",2 µg/mL,2 µg/mL,2.1 to 4 µg/mL,> 50 µg/mL,0.4 µg/mL,8.00 to 8.70,> 50 µg/mL,2.1 to 4 µg/mL,–,0.4 µg/mL,2 µg/mL,2 µg/mL,8.70 to 9.15,2.1 to 4 µg/mL,A (provided a compound having from 70% to 84% control of barley powdery mildew)
"COc1ccc(F)cc1[C@@H](O)Cn1c(=O)n([C@H]2CCN(C)C2=O)c(=O)c2c(C)c(-n3nccn3)sc21 [Compound I-164, 1-((R)-2-(5-fluoro-2-methoxyphenyl)-2-hydroxyethyl)-5-methyl-3-((S)-1-methyl-2-oxopyrrolidin-3-yl)-6-(2H-1,2,3-triazol-2-yl)thieno[2,3-d]pyrimidine-2,4(1H,3H)-dione]",10 µg/mL,> 50 µg/mL,2.1 to 4 µg/mL,> 50 µg/mL,0.4 µg/mL,7.00 to 8.00,> 50 µg/mL,2.1 to 4 µg/mL,–,2 µg/mL,2 µg/mL,0.4 µg/mL,8.70 to 9.15,1.1 to 2 µg/mL,B (provided a compound having from 50 to 69% control of barley powdery mildew)
"COc1ccc(F)cc1[C@H](Cn1c(=O)n([C@H]2CCN(C)C2=O)c(=O)c2c(C)c(-n3nccn3)sc21)OCCC#N [Compound I-108, 3-((R)-1-(5-fluoro-2-methoxyphenyl)-2-(5-methyl-3-((S)-1-methyl-2-oxopyrrolidin-3-yl)-2,4-dioxo-6-(2H-1,2,3-triazol-2-yl)-3,4-dihydro-thieno[2,3-d]pyrimidin-1 (2H)-yl)ethoxy)propanenitrile]",10 µg/mL,10 µg/mL,2.1 to 4 µg/mL,> 50 µg/mL,0.08 µg/mL,8.00 to 8.70,> 50 µg/mL,2.1 to 4 µg/mL,–,0.4 µg/mL,2 µg/mL,2 µg/mL,8.70 to 9.15,2.1 to 4 µg/mL,AA (provided a compound having >85% control of barley powdery mildew)
"COc1ccc(F)cc1[C@H](Cn1c(=O)n([C@H]2CCN(C)C2=O)c(=O)c2c(C)c(-n3nccn3)sc21)OCCCO [Compound I-154, 1-((R)-2-(5-fluoro-2-methoxyphenyl)-2-(3-hydroxy-propoxy)ethyl)-5-methyl-3-((S)-1-methyl-2-oxopyrrolidin-3-yl)-6-(2H-1,2,3-triazol-2-yl)thieno[2,3-d]pyrimidine-2,4(1H,3H)-dione]",–,–,2.1 to 4 µg/mL,–,–,8.00 to 8.70,–,2.1 to 4 µg/mL,–,–,–,–,8.70 to 9.15,0.25 to 1 µg/mL,–
"COc1ccc(F)cc1[C@H](COc1nc2sc(-n3nccn3)c(C)c2c(=O)n1[C@H]1CCN(C)C1=O)OCCCO [Compound I-156, 2-((R)-2-(5-fluoro-2-methoxyphenyl)-2-(3-hydroxy-propoxy)ethoxy)-5-methyl-3-((S)-1-methyl-2-oxopyrrolidin-3-yl)-6-(2H-1,2,3-triazol-2-yl)thieno[2,3-d]pyrimidin-4(3H)-one]",–,–,2.1 to 4 µg/mL,–,–,< 6.00,–,2.1 to 4 µg/mL,–,–,–,–,6.00 to 7.00,2.1 to 4 µg/mL,–
